In patent US8268836B2, “Compound useful as a c-Met inhibitor” (Eli Lilly and Company, priority 2010, dated 2012):

Experiments:
[1] = Rat bioavailability study; assay type: in vivo
Protocol: In rat bioavailability studies, each compound is administered intravenously (IV) or orally (PO). Intravenous dosing is formulated in solution formulation and oral dosing is formulated in 10% w/v acacia. Rat blood samples are collected using anti-coagulant (EDTA) collection tubes and centrifugation is performed to obtain plasma samples. Aliquots of plasma are pipetted and stored immediately at <−20° C. Shipments of plasma samples are packed in dry ice if needed and samples are frozen at <−20° C. until analysis.
A stock solution of each drug is prepared and is diluted into pooled rat plasma to prepare standards. Plasma standards or samples are treated by protein precipitation or liquid-liquid extraction using organic solvent containing internal standard. The mixtures are centrifuged and aliquots of the resulting supernatant fractions are transferred. In the case of protein precipitation, supernatant is diluted and analyzed using a Mass Spectrometer coupled to a HPLC System and an autosampler. In the case of liquid-liquid-extraction, supernatant is dried under N2 at 40° C., reconstituted and analyzed using a Mass Spectrometer coupled to a HPLC System and an autosampler. Quantitation is performed using multiple reaction monitoring (MRM) and linear regression plots of compounds to internal standard peak area ratios versus drug concentrations.

MKN45 gastric xenografts = assay: Xenograft tumor model MKN45; assay type: in vivo, mice
Protocol: (§1) Human glioblastoma cells U87MG, human gastric cancer cells MKN45, or human pancreatic KP4 cells are cultured and implanted subcutaneously in the rear flank of female CD-1 nu/nu strain mice which have been acclimated for one week in the animal facility after receipt from the vendor. Mice are randomized into groups of 10 mice per group. Testing compound is prepared in an appropriate vehicle and is administered by oral gavage when tumors are established (7-21 days after implant, or when the mean tumor volume reaches ˜100 mm^3). Tumor response is determined by tumor volume measurement performed twice a week during the course of treatment. Fluctuations in body weight are also monitored as a general measurement of toxicity. The compound of example 1 is orally administered twice a day for 28 days.
(§2) For statistical analysis, the individual subject tumor volumes are transformed to log volume and are analyzed with a two-way repeated measures analysis of variance by time and treatment using the MIXED procedures in SAS software (version 8.2). The correlation model for the repeated measures is spatial power. Treated groups are compared to the control group at the final time point. The MIXED procedure is also used separately for each treatment group to calculate adjusted means and standard errors at each time point. Both analyses account for the autocorrelation within each subject.

[2] = molecular target: T1, human c-Met (phospho-c-Met in S114 tumors) (Homo sapiens, UniProt P08581); assay: c-Met in vivo target inhibition (IVTI) assay, S114 tumors in nude mice; set-up: species or system mouse
T1 construct: expressed in transfected cells; host or cells: S114 cells grown as subcutaneous tumors in athymic nude mice
Protocol: S114 cells (over-expressing both human HGF and human c-Met) are cultured in a growth media (Dulbecco's Modified Eagle Medium) supplemented with 10% fetal calf serum and expanded. Cells are harvested and washed twice with phosphate buffered saline and 2×10^6 cells are mixed with equal volume of BD Matrigel™ matrix (BD Bioscience, Franklin, N.J.), and injected subcutaneously into the flank of nude mice (athymic nude, from Harlan, Indianapolis, Ind.). At day 8 after implant, compounds (formulated in 10% acacia or 1% carboxymethylcellulose/0.5% sodium lauryl sulfate/0.05% antifoam as suspension) are administered to animals by oral gavage at 50 mg/kg. Animals are sacrificed at 2 h post dose, and tumors are harvested and stored frozen until needed.
Frozen tumors are pulverized using motar-pestel. The pulverized tissues are transferred to a tube containing Lysing Matrix D beads (MP Biomedicals, Solon, Ohio) and 600 μL lysis buffer (RIPA buffer, containing 50 mM Tris-HCl, pH 7.4, 150 mM NaCl, 1% NP-40, 0.5% sodium deoxycholate, 0.1% SDS, from Boston Bioproducts, Phosphatase Inhibitors I and II and Protease Inhibitor (Sigma, St. Louis, Mo.)). A FastPrep® Cell Disrupter (MP Biomedicals, Inc.) is used to disrupt the tissue and lyse the cells. Lysates are passed through a 20 gauge needle and transferred to a clean tube. Protein concentration is determined by Bradford method known to one of skill in the art.
Tumor lysates are loaded onto MSD® phosphor-Met ELISA plates and phosphor-c-Met level is determined using the same protocol as H460 cell-based ELISA. […] The TEC50 for example 1 is 0.18 μM with a 95% confidence interval bounded by 0.13 μM and 0.23 μM.
In IVTI studies, each compound is administered orally and formulated in 10% w/v acacia. Mouse blood samples are collected with anti-coagulant (EDTA-purple top Vacutainer tube) post-dose using cardiac puncture techniques. Tubes are inverted for 3-5 times and are placed on ice until centrifugation at 3000 RPM (1800×g) for 10 min at 4° C. to obtain plasma. Aliquots of plasma are pipetted and stored in a clean 96 well plate. Plasma samples are stored immediately at −80° C. Shipments of plasma samples are packed in dry ice and samples are frozen at −80° C. until analysis.

[3] = system: KP4 pancreatic xenografts; assay: Xenograft tumor model KP4; assay type: in vivo, mice
Protocol: as §1, §2

[4] = plasma, PO 10 mg/kg in 10% acacia, Example 1 dosed as mesylate salt
[5] = 4 mg/kg oral twice a day for 28 days
[6] = 8 mg/kg oral twice a day for 28 days
[7] = 16 mg/kg oral twice a day for 28 days
[8] = 32 mg/kg oral twice a day for 28 days

T1 sequence (P08581 25-1390): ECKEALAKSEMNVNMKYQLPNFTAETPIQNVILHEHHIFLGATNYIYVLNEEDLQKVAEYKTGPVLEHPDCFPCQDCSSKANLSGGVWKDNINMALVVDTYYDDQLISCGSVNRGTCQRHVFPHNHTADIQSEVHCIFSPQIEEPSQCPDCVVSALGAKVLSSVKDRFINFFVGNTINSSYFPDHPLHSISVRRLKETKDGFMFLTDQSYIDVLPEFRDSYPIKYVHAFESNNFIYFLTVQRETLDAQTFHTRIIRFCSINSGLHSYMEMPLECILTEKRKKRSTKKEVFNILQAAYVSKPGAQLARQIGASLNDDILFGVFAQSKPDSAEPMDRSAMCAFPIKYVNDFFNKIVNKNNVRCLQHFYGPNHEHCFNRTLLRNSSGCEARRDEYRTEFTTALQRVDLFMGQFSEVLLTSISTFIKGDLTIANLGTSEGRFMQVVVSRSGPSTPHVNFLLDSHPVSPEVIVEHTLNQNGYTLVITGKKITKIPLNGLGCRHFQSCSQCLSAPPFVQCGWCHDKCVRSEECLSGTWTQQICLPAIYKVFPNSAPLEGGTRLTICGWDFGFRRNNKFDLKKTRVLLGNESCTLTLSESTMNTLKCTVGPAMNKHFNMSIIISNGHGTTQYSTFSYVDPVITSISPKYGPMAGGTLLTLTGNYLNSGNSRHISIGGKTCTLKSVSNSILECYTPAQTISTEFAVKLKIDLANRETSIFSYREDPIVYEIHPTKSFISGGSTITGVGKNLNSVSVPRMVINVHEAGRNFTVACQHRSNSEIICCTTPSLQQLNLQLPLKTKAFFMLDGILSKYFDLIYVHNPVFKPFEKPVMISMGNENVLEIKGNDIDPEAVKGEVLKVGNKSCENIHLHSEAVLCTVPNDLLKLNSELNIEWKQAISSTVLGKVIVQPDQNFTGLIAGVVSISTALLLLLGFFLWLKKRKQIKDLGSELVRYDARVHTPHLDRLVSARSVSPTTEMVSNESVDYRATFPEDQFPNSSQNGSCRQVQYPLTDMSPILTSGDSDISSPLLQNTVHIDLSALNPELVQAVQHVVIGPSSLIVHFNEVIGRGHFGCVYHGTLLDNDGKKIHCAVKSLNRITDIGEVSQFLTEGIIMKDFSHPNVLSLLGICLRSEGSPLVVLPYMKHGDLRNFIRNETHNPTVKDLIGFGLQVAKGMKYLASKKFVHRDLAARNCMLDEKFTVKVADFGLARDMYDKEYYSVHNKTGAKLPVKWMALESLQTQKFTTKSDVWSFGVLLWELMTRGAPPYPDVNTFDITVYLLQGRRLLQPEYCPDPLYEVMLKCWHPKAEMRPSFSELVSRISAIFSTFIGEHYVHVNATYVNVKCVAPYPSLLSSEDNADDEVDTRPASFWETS

Cn1cc(-c2ccc3nnc(Sc4ccc5nn(C)cc5c4)n3n2)cn1 [Example 1, 6-(1-Methyl-1H-pyrazol-4-yl)-3-(2-methyl-2H-indazol-5-ylthio)-[1,2,4]triazolo[4,3-b]pyridazine]
fold increase in oral bioavailability vs reference compound [1]: 4.5 fold
fold longer terminal elimination half life vs reference compound ([1]; 1 mg/kg intravenous dose): 4 fold
fold lower plasma clearance vs reference compound ([1]; 1 mg/kg intravenous dose): 18 fold
fold higher exposure by peak plasma concentration vs reference compound ([1]; 10 mg/kg oral dose, 10% acacia): 57 fold
fold higher exposure by plasma AUC vs reference compound ([1]; 10 mg/kg oral dose, 10% acacia): 93 fold
clearance ([1]; plasma, IV 1 mg/kg solution, Example 1 dosed as mesylate salt): 1.7 mL/min/kg
half-life ([1]; plasma, IV 1 mg/kg solution, Example 1 dosed as mesylate salt, read-out: T½ (converted)): 2.3 h
Vd ([1]; plasma, IV 1 mg/kg solution, Example 1 dosed as mesylate salt, read-out: Vdss): 0.3 L/kg
AUC [1, 4]: 73800 ng·h/mL
Cmax [1, 4]: 9400 ng/mL
Tmax [1, 4]: 3.33 h
bioavailability ([1]; plasma, PO 10 mg/kg vs IV 1 mg/kg, Example 1 dosed as mesylate salt, read-out: F % (oral bioavailability)): 65.8%
Mean Tumor Volume ± Standard Error (MKN45 gastric xenografts; [5]): 329 ± 54 mm^3
Mean Tumor Volume ± Standard Error (MKN45 gastric xenografts; [6]): 296 ± 29 mm^3
Mean Tumor Volume ± Standard Error (MKN45 gastric xenografts; [7]): 166 ± 10 mm^3
Mean Tumor Volume ± Standard Error (MKN45 gastric xenografts; [8]): 161 ± 14 mm^3
inhibition at 16 mg/kg ([2]; 16 mg/Kg dose, 2 h, experiment separate from head to head study, read-out: Single dose IVTI % inhibition after 2 h): 98%
EC50 ([2]; S114 tumors in nude mice, read-out: TEC50): 180 nM
inhibition at 8 mg/kg ([2]; S114 tumors, oral 8 mg/kg, 8 h, read-out: % phos-Met inhibition at 8 mg/kg after 8 h): 75%
inhibition at 20 mg/kg ([2]; S114 tumors, oral 20 mg/kg, 8 h, read-out: % phos-Met inhibition at 20 mg/kg after 8 h): 93%
ED50 ([2]; oral gavage, S114 tumors in nude mice): 0.32 mg/kg
Mean Tumor Volume ± Standard Error ([3]; 2 mg/kg oral twice a day for 28 days): 1229 ± 83 mm^3
Mean Tumor Volume ± Standard Error [3, 5]: 1085 ± 256 mm^3
Mean Tumor Volume ± Standard Error [3, 6]: 627 ± 74 mm^3
Mean Tumor Volume ± Standard Error [3, 7]: 554 ± 47 mm^3
Mean Tumor Volume ± Standard Error [3, 8]: 273 ± 42 mm^3
